Experimental data from patent US20110092476A1, “Bicycloheteroaryl compounds as P2X7 modulators and uses thereof” (Renovis, Inc., priority 2006, published 2011).

Molecular target: T1, P2X7 receptor (Homo sapiens, UniProt Q99572)
T1 construct: host or cells: THP-1 cells differentiated with LPS and IFN-γ
T1 sequence (Q99572 1-595): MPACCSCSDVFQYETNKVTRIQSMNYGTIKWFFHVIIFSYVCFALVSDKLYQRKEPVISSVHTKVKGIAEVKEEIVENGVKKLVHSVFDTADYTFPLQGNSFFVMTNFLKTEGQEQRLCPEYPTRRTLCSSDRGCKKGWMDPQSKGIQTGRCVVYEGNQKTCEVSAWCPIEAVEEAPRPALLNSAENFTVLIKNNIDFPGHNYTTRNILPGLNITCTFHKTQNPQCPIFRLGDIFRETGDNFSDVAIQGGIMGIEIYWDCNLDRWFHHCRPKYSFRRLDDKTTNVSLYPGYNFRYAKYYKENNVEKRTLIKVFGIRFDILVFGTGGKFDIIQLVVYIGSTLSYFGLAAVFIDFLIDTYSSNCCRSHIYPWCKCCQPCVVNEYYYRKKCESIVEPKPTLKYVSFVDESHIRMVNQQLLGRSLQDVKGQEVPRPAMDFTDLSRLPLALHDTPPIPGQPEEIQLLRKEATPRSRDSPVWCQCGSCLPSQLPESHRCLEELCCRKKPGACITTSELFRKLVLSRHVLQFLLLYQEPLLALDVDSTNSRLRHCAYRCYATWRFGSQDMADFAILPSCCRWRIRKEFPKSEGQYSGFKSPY
Assay: IL-1β release assay in differentiated THP-1 cells stimulated with BzATP (Example 9)
Assay type: cell-based
Conditions: 0.1 μM compound (symbols *); differentiated THP-1 cells, BzATP 250 uM; read-out: IL-1β % Inhib. @ 0.3 or 0.1 uM
Method: THP-1 cells (ATCC Cat #285-IF-100) are plated in 96 well plates at a concentration of 200,000 cells per well and allowed to differentiate in RPMI-1640 media (ATCC Cat #30-2001) containing 10% FBS, 100 IU/mL penicillin, 100 ug/mL streptomycin, 100 ng/mL LPS and 100 ng/mL IFN-γ for 16 hours. Following differentiation, the cells are treated for an additional 2 hours in RPMI-1640 media containing 100 IU/mL penicillin, 100 ug/mL streptomycin and fresh LPS at 100 ng/mL. The cells are then pretreated for 30 minutes with the compound of interest at the appropriate concentration in RPMI media containing 100 IU/mL penicillin, 100 ug/mL streptomycin. Following the pretreatment 2′,3′-O-(4-benzoylbenzoyl)-adenosine 5′-triphosphate (Sigma Aldrich Cat #B6396) is added to a final concentration of 250 uM and the cells are incubated for an additional 45 minutes. 30 uL of cell supernatant is then collected and IL-1β levels determined via ELISA (R&D systems Cat. #HSLB50) according to manufacturer's recommendations using the Tecan Safire plate reader. Background adjusted IL-1β levels of drug treated and non-treated cells are used to calculate the percent inhibition.
The compounds set forth in Table 1 were tested for activity in a cellular model as described herein. Specifically, cells were pretreated with differing amounts of the compound under test and released IL-1β determined as in Example 9, above. Measurements were made and IC50 values, presented in Table 2, below, were determined by fitting the data to a four parameter logistic equation using GraphPad Prism software (GraphPad Software, Inc). The equation may be expressed by the following formula:
Y=Bottom+(Top−Bottom)/(1+10̂((Log EC50−X)*HillSlope))
Where X is the logarithm of concentration, Y is the response and Y starts at Bottom and goes to Top with a sigmoid shape.

inhibition at 0.1 µM [%]	Compound
0 to 25	O=C(Nc1cccc2c(=O)n(CC3(O)CCCCC3)ccc12)c1ccc(-c2ccccc2)o1 [Compound 9]
0 to 25	COc1cccc(CCC(=O)Nc2cccc3c(=O)n(CC4(O)CCCCC4)ccc23)c1 [Compound 10]
0 to 25	COc1cc(OC)cc(C(=O)Nc2cccc3c(=O)n(CC4(O)CCCCC4)ccc23)c1 [Compound 19]
0 to 25	Cc1cccc(C(=O)Nc2cccc3c(=O)n(CC4(O)CCCCC4)ccc23)c1 [Compound 20]
0 to 25	CCOc1ccc(C(=O)Nc2cccc3c(=O)n(CC4(O)CCCCC4)ccc23)cc1 [Compound 21]
0 to 25	O=C(Nc1cccc2c(=O)n(CC3(O)CCCCC3)ccc12)c1ccc(-c2ccccc2)cc1 [Compound 22]
0 to 25	CC(C)(C)c1ccc(C(=O)Nc2cccc3c(=O)n(CC4(O)CCCCC4)ccc23)cc1 [Compound 23]
26 to 50	CC(C(=O)Nc1cccc2c(=O)n(CC3(O)CCCCC3)ccc12)c1ccccc1 (stereo not shown) [Compound 24]

Same assay, conditions: 0.3 μM compound (symbols +); differentiated THP-1 cells, BzATP 250 uM; read-out: IL-1β % Inhib. @ 0.3 or 0.1 uM

inhibition at 0.3 µM [%]	Compound
0 to 25	Cc1cc(C(=O)Nc2cccc3c(=O)n(CC4(O)CCCCC4)ccc23)ccc1Cl [Compound 17]
0 to 25	O=C(Nc1cccc2c(=O)n(CC3(O)CCCCC3)ccc12)c1ccc2ccccc2c1 [Compound 27]
0 to 25	O=C(Cc1ccccc1F)Nc1cccc2c(=O)n(CC3(O)CCCCC3)ccc12 [Compound 28]
26 to 50	COc1ccccc1CC(=O)Nc1cccc2c(=O)n(CC3(O)CCCCC3)ccc12 [Compound 29]
0 to 25	Cc1cccc(CC(=O)Nc2cccc3c(=O)n(CC4(O)CCCCC4)ccc23)c1 [Compound 32]
0 to 25	COc1ccc(CC(=O)Nc2cccc3c(=O)n(CC4(O)CCCCC4)ccc23)cc1 [Compound 33]
26 to 50	Cc1ccc(CC(=O)Nc2cccc3c(=O)n(CC4(O)CCCCC4)ccc23)cc1 [Compound 35]
0 to 25	O=C(Nc1cccc2c(=O)n(CC3(O)CCCCC3)ccc12)c1cc2ccccc2o1 [Compound 37]
0 to 25	COc1c(C)cc(C(=O)Nc2cccc3c(=O)n(CC4(O)CCCCC4)ccc23)cc1C [Compound 40]
0 to 25	Cc1cc(C(=O)Nc2cccc3c(=O)n(CC4(O)CCCCC4)ccc23)ccc1F [Compound 48]
0 to 25	O=C(CCc1ccc(Cl)cc1)Nc1cccc2c(=O)n(CC3(O)CCCCC3)ccc12 [Compound 49]
0 to 25	Cc1ccc(Cl)c(C(=O)Nc2cccc3c(=O)n(CC4(O)CCCCC4)ccc23)c1 [Compound 51]
0 to 25	Cc1ccc(Cl)cc1C(=O)Nc1cccc2c(=O)n(CC3(O)CCCCC3)ccc12 [Compound 52]
0 to 25	Cc1cccc(CCC(=O)Nc2cccc3c(=O)n(CC4(O)CCCCC4)ccc23)c1 [Compound 53]
26 to 50	O=C(Nc1cccc2c(=O)n(CC3(O)CCCCC3)ccc12)c1cc2cc(Cl)ccc2o1 [Compound 54]
0 to 25	Cc1cccc(C(=O)Nc2cccc3c(=O)n(CC4(O)CCCCC4)ccc23)c1Cl [Compound 55]
0 to 25	COc1ccc(C(=O)Nc2cccc3c(=O)n(CC4(O)CCCCC4)ccc23)c(C)c1 [Compound 56]
26 to 50	O=C(CCc1cccc(Cl)c1)Nc1cccc2c(=O)n(CC3(O)CCCCC3)ccc12 [Compound 58]
26 to 50	CC(C)Cc1ccc(C(=O)Nc2cccc3c(=O)n(CC4(O)CCCCC4)ccc23)cc1 [Compound 59]

More lines, now with the values behind:

Compound	inhibition at 0.3 µM [%]
O=C(Nc1cccc2c(=O)n(CCO)ccc12)c1ccccc1 [Compound 1]	0 to 25
COc1ccc(CC(=O)Nc2cccc3c(=O)n(CCO)ccc23)cc1 [Compound 2]	0 to 25
O=C(CCc1ccccc1)Nc1cccc2c(=O)n(CCO)ccc12 [Compound 3]	51 to 75
COc1ccc(C(=O)Nc2cccc3c(=O)n(C(CO)CO)ccc23)c(OC)c1 [Compound 5]	0 to 25
O=C(Nc1cccc2c(=O)n(CCO)ccc12)c1ccc(C(F)(F)F)cc1C(F)(F)F [Compound 6]	26 to 50
COc1ccc(CCC(=O)Nc2cccc3c(=O)n(CC4(O)CCCCC4)ccc23)cc1 [Compound 25]	0 to 25
O=C(Cc1cccc2ccccc12)Nc1cccc2c(=O)n(CC3(O)CCCCC3)ccc12 [Compound 26]	0 to 25
COc1ccc(OC)c(CC(=O)Nc2cccc3c(=O)n(CC4(O)CCCCC4)ccc23)c1 [Compound 30]	0 to 25
COc1ccc(CC(=O)Nc2cccc3c(=O)n(CC4(O)CCCCC4)ccc23)cc1OC [Compound 31]	0 to 25
CCOc1ccc(CC(=O)Nc2cccc3c(=O)n(CC4(O)CCCCC4)ccc23)cc1 [Compound 34]	0 to 25
O=C(CCCc1ccccc1)Nc1cccc2c(=O)n(CC3(O)CCCCC3)ccc12 [Compound 36]	26 to 50
O=C(Cc1ccc2c(c1)OCO2)Nc1cccc2c(=O)n(CC3(O)CCCCC3)ccc12 [Compound 38]	0 to 25
COc1cc(CC(=O)Nc2cccc3c(=O)n(CC4(O)CCCCC4)ccc23)cc(OC)c1 [Compound 39]	0 to 25
COc1ccc(CC(=O)Nc2cccc3c(=O)n(CC4(O)CCCCC4)ccc23)c(OC)c1 [Compound 47]	0 to 25
CCOc1ccccc1CC(=O)Nc1cccc2c(=O)n(CC3(O)CCCCC3)ccc12 [Compound 50]	0 to 25
O=C(Cc1ccc(C(F)(F)F)cc1)Nc1cccc2c1CCN(CCO)C2=O [Compound 60]	26 to 50
O=C(CCc1cc(C(F)(F)F)cc(C(F)(F)F)c1)Nc1cccc2c(=O)n(CCO)ccc12 [Compound 61]	0 to 25

Compound	inhibition at 0.3 µM [%]
O=C(Cc1ccc2c(c1)OCCO2)Nc1cccc2c(=O)n(CCO)ccc12 [Compound 63]	0 to 25
O=C(Cc1cc(C(F)(F)F)cc(C(F)(F)F)c1)Nc1cccc2c(=O)n(CCO)ccc12 [Compound 64]	51 to 75
COc1ccc(CC(=O)Nc2cccc3c(=O)n(CCO)ccc23)cc1Br [Compound 66]	> 76
O=C(Cc1cc(C(F)(F)F)ccc1Cl)Nc1cccc2c(=O)n(CCO)ccc12 [Compound 67]	0 to 25
O=C(Cc1cc(Cl)ccc1C(F)(F)F)Nc1cccc2c(=O)n(CCO)ccc12 [Compound 68]	26 to 50
O=C(Cc1cc(C(F)(F)F)ccc1C(F)(F)F)Nc1cccc2c(=O)n(CCO)ccc12 [Compound 70]	26 to 50
CS(=O)(=O)c1ccc(CCC(=O)Nc2cccc3c(=O)n(CCO)ccc23)cc1 [Compound 71]	0 to 25
CS(=O)(=O)c1ccc(CC(=O)Nc2cccc3c(=O)n(CCO)ccc23)cc1 [Compound 72]	0 to 25
O=C(Cc1ccc(F)cc1)Nc1cccc2c(=O)n(CCO)ccc12 [Compound 73]	26 to 50
CCC(C(=O)Nc1cccc2c(=O)n(CCO)ccc12)c1ccccc1 (stereo not shown) [Compound 74]	0 to 25
COc1cccc(CC(=O)Nc2cccc3c(=O)n(CCO)ccc23)c1 [Compound 75]	0 to 25
O=C(Cc1ccccc1)Nc1cccc2c(=O)n(CCO)ccc12 [Compound 76]	0 to 25
COc1ccc(OC)c(CC(=O)Nc2cccc3c(=O)n(CCO)ccc23)c1 [Compound 77]	0 to 25
CC(C)C(C(=O)Nc1cccc2c(=O)n(CCO)ccc12)c1ccc(Cl)cc1 (stereo not shown) [Compound 78]	0 to 25
O=C(Nc1cccc2c(=O)n(CCO)ccc12)C1(c2ccc(Cl)cc2)CCCC1 [Compound 79]	0 to 25
O=C(Cc1ccc(Cl)cc1Cl)Nc1cccc2c(=O)n(C(CO)CO)ccc12 [Compound 82]	51 to 75

Same assay, conditions: THP-1 cells, BzATP 250 uM, IL-1β by ELISA

IC50 [nM]	Compound
> 1000	O=C(Nc1cccc2c(=O)n(CCO)ccc12)C1(c2ccc(Cl)cc2)CCCC1 [Compound 79]
